Blank lines part the entries; values can stand above or below the compound they belong to.
How the values were obtained:
Male Sprague Dawley rats = test: In-vivo assay: urinary glucose excretion in rats after oral gavage; details: rat, urine collected for 24 hours
Experimental: Examples 1A and 4A were tested in rats to assess inhibition of glucose transport via urinary glucose excretion. Male Sprague Dawley rats (˜300 g) were singly housed in metabolic cages for urine collection. Rats had access to standard laboratory chow and water ad libitum. Rats (n=2 to 5/group) received vehicle or compound by oral gavage. Dosing solutions were 0.03 mg/mL, 0.3 mg/mL, 0.9 mg/mL, 3 mg/mL, 9 mg/mL and 18 mg/mL for the 0.1 mg/kg, 1 mg/kg, 3 mg/kg, 10 mg/kg, 30 mg/kg and 60 mg/kg doses respectively. Dosing volume was 1 mL/300 g of body weight for all doses. […] The vehicle was 20% v/v PEG400 and 24% v/v hydroxypropyl beta cyclodextrin; HPBCD. Following oral administration, urine was collected for 24 hours. Glucose concentration was measured in urine by UV absorbance spectrophotometry at 340 nm using a Roche Hitachi 917 spectrophotometer (Diamond Diagnostics, Holliston, Mass.). The total amount of glucose excreted in the urine was calculated as the product of urine concentration and urine volume using the formula below: urinary glucose excreted (mg)/200 g body weight=urinary glucose concentration (mg/dL)×urine volume (dL)×200/rat body weight (g). […] Blood (0.1 mL) was collected from the PK satellite group animals at 1, 2, 4, 7, 24 hours postdose to obtain plasma and analyzed by LC-MS/MS.

[1] = Pharmacokinetic testing in rats (IV or PO); type: in vivo; details: rat
Experimental: Examples 1A, 2A, 4A, 12A, and 14A were tested in rats to assess pharmacokinetic parameters including maximum concentration (Cmax), area under the plasma concentration time curve (AUC), clearance (CL), steady state volume of distribution (Vss), half life (t1/2), and bioavailability (F). Male Sprague Dawley rats (˜300 g) were used. Rats received compound by intravenous (IV) or oral gavage (PO) administration and the doses tested including vehicle to formulate dosing solutions are listed in Table 5.
Following IV or PO administration, 0.2 mL blood was sampled from the jugular vein at various timepoints (Table 5). Twenty microL aliquots of plasma samples and standards were subjected to protein precipitation with acetonitrile containing an internal standard. Samples were vortexed and centrifuged to obtain supernatant which was analyzed by LC-MS/MS. Analyst (Version 1.4.1) was used to measure peak areas and peak area ratios of analyte to internal standard were calculated. LC-MS/MS conditions are as follows: Mass Spectrometer+Source Type was Sciex API 4000−Turbo Spray; HPLC pump was Shimadzu; Autosampler was CTC PAL Autosampler; Injection volume was 3.0 to 10 microL; A gradient was used with mobile phase A: 10 mM ammonium acetate and 1% Isopropyl alcohol in water; B: Acetonitrile; Flowrate 0.300 mL per minute (Column 2.0×30 mm 5 microm LUNA C18 column (phenomenex)). Detection mode was negative.
A calibration curve was constructed from the peak area ratios of the standards to the internal standard by applying a weighted linear (1/x or 1/x2) regression. The dynamic range of the standard curve was 5.00 ng/mL to 5000 ng/mL.
Pharmacokinetic parameters were determined from individual animal data using non-compartmental analysis in Watson (version 7.2). Concentrations below the limit of quantitation (BLQ) were recorded as 0 ng/mL for use in calculations.
The following calculations were used: AUC(0−τ)=Determined using the linear trapezoidal method AUC(0−□)=AUC(0−τ) plus extrapolated area determined by dividing plasma concentration at τ by the slope of the terminal log-linear phase CL=Dose/AUC(0−∞) Vdss=CL×MRT Cmax=Recorded directly from plasma concentration time curve Tmax=Recorded directly from plasma concentration time curve t½=ln(0.5)/slope of the terminal log-linear phase F %=AUC(0−∞)PO per dose/AUC(0−∞)IV per dose C(0)=Extrapolated by linear regression from the apparent distribution phase following IV administration MRT=AUMC(AUC(0−∞)/AUC(0−∞)

[2] = male, Sprague Dawley, plasma, IV, 2 mg/kg
[3] = male, Sprague Dawley, plasma, PO, 10 mg/kg, PEG200/0.5% MC
[4] = male, Sprague Dawley, plasma, PO, 2 mg/kg, Tween 80/0.5% MC
[5] = male, Sprague Dawley, plasma, PO, 5 mg/kg, 20% PEG/24% HBCD

- AUC(0-inf) [1, 2]: 947 ng·h/mL
- AUC(0-inf) [1, 3]: 2680 ng·h/mL
- Cmax [1, 3]: 1650 ng/mL
- half-life [1, 3]: 2.82 h
- CL ([1]; IV, 2 mg/kg): 37.1 mL/min/kg
- Vss ([1]; IV, 2 mg/kg): 1.71 L/kg
- t1/2 ([1]; IV, 2 mg/kg): 0.962 h
- F ([1]; PO, 10 mg/kg, PEG200/0.5% MC): 56.5%
SMILES: COc1ccc(Cc2cc([C@]34OC[C@](CO)(O3)[C@@H](O)[C@H](O)[C@H]4O)ccc2C)cc1 [Example 1A, (1S,2S,3S,4R,5S)-1-hydroxymethyl-5-[3-(4-methoxy-benzyl)-4-methyl-phenyl]-6,8-dioxa-bicyclo[3.2.1]octane-2,3,4-triol]
- Mean UGE (mg/200 g of body weight) ± SEM (n = 5) (Male Sprague Dawley rats; 10 mg/kg): 2049 ± 382.2 mg/200 g of body weight

SMILES: CCOc1ccc(Cc2cc([C@]34OC[C@](CO)(O3)[C@@H](O)[C@H](O)[C@H]4O)ccc2Cl)cc1 [Example 4A, (1S,2S,3S,4R,5S)-5-[4-chloro-3-(4-ethoxy-benzyl)-phenyl]-1-hydroxymethyl-6,8-dioxa-bicyclo[3.2.1]octane-2,3,4-triol]
- Mean UGE (mg/200 g of body weight) ± SEM (n = 5) (Male Sprague Dawley rats; 0.1 mg/kg): 389.0 ± 62.54 mg/200 g of body weight
- Mean UGE (mg/200 g of body weight) ± SEM (n = 5) (Male Sprague Dawley rats; 1 mg/kg): 1519 ± 52.02 mg/200 g of body weight
- Mean UGE (mg/200 g of body weight) ± SEM (n = 5) (Male Sprague Dawley rats; 3 mg/kg): 1937 ± 101.1 mg/200 g of body weight
- Mean UGE (mg/200 g of body weight) ± SEM (n = 5) (Male Sprague Dawley rats; 10 mg/kg): 2145 ± 132.3 mg/200 g of body weight
- Mean UGE (mg/200 g of body weight) ± SEM (n = 5) (Male Sprague Dawley rats; 30 mg/kg): 2554 ± 141.1 mg/200 g of body weight
- Mean UGE (mg/200 g of body weight) ± SEM (n = 5) (Male Sprague Dawley rats; 60 mg/kg): 2437 ± 116.7 mg/200 g of body weight
- AUC(0-inf) [1, 2]: 8480 ng·h/mL
- Vd ([1]; male, Sprague Dawley, plasma, IV, 2 mg/kg, read-out: Vss): 1.1 L/kg
- AUC(0-inf) [1, 4]: 5650 ng·h/mL
- Cmax [1, 4]: 772 ng/mL
- half-life [1, 4]: 3.7 h
- AUC(0-inf) [1, 5]: 16800 ng·h/mL
- Cmax [1, 5]: 1190 ng/mL
- CL ([1]; IV, 2 mg/kg): 4.04 mL/min/kg
- t1/2 ([1]; IV, 2 mg/kg): 4.1 h
- F ([1]; PO, 2 mg/kg, Tween 80/0.5% MC): 67%
- F ([1]; PO, 5 mg/kg, 20% PEG/24% HBCD): 79%
